Results from patent US9249185B2, “Peptides for promoting angiogenesis and an use thereof” (INDUSTRY-ACADEMIC COOPERATION FOUNDATION, SOOKMYUNG WOMEN'S …, priority 2010, dated 2016).

Columns and labels:
HUVECs = assay: Migration of HUVECs through polycarbonate filter chamber; type: cell-based, human; details: 37° C. for 10 hours, negative control (untreated) = 100
Experimental: In order to investigate the effect of the 7 peptides prepared in Example 1 on blood vessel formation, migration of HUVECs was measured.
The bottom portion of a chamber of a 24-well plate (Corning Costar, USA) having a polycarbonate filter with pores therebelow was coated with 0.5 mg/mL collagen type 1 ([…]). After adding EBM-2 containing the 7 peptides of the peptide of the present invention to the bottom portion of the chamber, HUVECs were inoculated at the upper portion of the chamber, with 1×10^5 cells per well. After incubation at 37° C. for 10 hours, the cells that had passed through the polycarbonate filter were fixed with methanol, stained with hematoxylin, and counted under a microscope.

[1] = tested on: human umbilical vein endothelial cells (HUVECs); assay: Proliferation of HUVECs (CyQUANT kit); type: cell-based; details: 48 hours with peptide, negative control (untreated) = 100
Experimental: In order to investigate the effect of the 7 peptides prepared in Example 1 on blood vessel formation, human umbilical vein endothelial cells (HUVECs) were treated with the peptide of the present invention and their proliferation was observed.
HUVECs were cultured in endothelial cell basal medium-2 (EBM-2, Clonetics Co., San Diego, USA) containing 2% fetal bovine serum (FBS). The cultured HUVECs were transferred to a 96-well plate, with 1000 cells per each well. After culturing for 24 hours followed by addition of the 7 peptides of the peptide of the present invention to each well, they were further cultured for 48 hours. The cells treated with VEGF instead of the peptide of the present invention and those treated with nothing were cultured under the same condition, as positive control group and negative control group, respectively. Upon completion of the culturing, the degree of cell proliferation was measured using the CyQUANT kit (Invitrogen, USA).

| Substance | Cell migration (%) (HUVECs) | Cell proliferation (%) [1] |
| --- | --- | --- |
| AGES (Pep_1 Artificial Peptide for Promotion of Angiogenesis) | 118.0% | 109.6% |
| AGESQK (Pep_11 Artificial Peptide for Promotion of Angiogenesis) | 202.2% | 146.5% |
| KNAGDS (Pep_3 Artificial Peptide for Promotion of Angiogenesis) | 125.8% | 115.7% |
| KNAGHS (Pep_4 Artificial Peptide for Promotion of Angiogenesis) | 135.5% | 119.6% |
| PKAGES (Pep_2 Artificial Peptide for Promotion of Angiogenesis) | 159.5% | 104.4% |
| RQAGDS (Pep_5 Artificial Peptide for Promotion of Angiogenesis) | 165.4% | 207.5% |
| RQAGHS (Pep_6 Artificial Peptide for Promotion of Angiogenesis) | 138.6% | 138.0% |
| Vascular endothelial growth factor [VEGF] | 146.3% | 166.0% |
